Type in all cases: cell-based, human
One assay has as its system 24335 cells. Nature of the assay: Differentiation and proliferation of ZNF532-NUT+ 24335 NMC cells (involucrin/keratin expression, H&E). Conditions: BET inhibitor treatment. How it is done:
FIGS. 8A-8B describe experimental data showing differentiation of ZNF532-NUT+24335 cells in response to NUT knockdown or BET inhibitor.
(FIG. 10A) Immunoblot of involucrin expression, a marker of squamous differentiation. (FIG. 10B) H&E showing differentiation as evidenced by formation of cohesive spherical clusters, and marked accumulation of cytoplasm. (FIG. 10C) 500 nM JQ1 BET inhibitor was administered. Dose-response to JQ1 measured by cell titer glo. (FIG. 10D) Effects of ZNF532 and NUT knock down on number of mitoses quantified by immunohistochemistry using anti-histone H3phospho-serine antibody.
The importance of ZNF532 in NMC was underscored by simultaneous discovery of a patient with pulmonary NMC (FIG. 5A) harboring a ZNF532-NUT fusion gene, that was identified by whole transcriptome RNAsequencing (FIG. 5B), and confirmed by cytogenetics, fluorescence in situ hybridization (FISH), RT-PCR, western blotting, and immunofluorescence (FIGS. 5C-5F, 6). The fusion gene is comprised of exon 3 of ZNF532 fused to intron 1 of NUT (FIG. 7). The resulting predicted 1500 amino acid protein includes the N-terminal 778 amino acids of ZNF532, encoding only the first two of eleven zinc fingers and a large unstructured domain, part of intron 1 of NUT, and its remaining exons 2-7 (FIGS. 8A-8B). […]

Another assay has as its system PVT1 RNA. Nature of the assay: RNA-seq at the MYC locus (PVT1 lncRNA) in 24335 cells. Conditions: JQ1 administered for 4 h prior to RNA collection. On the procedure:
(FIG. 11A) Localization of ZNF532-NUT and effects on transcription at the MYC locus based on ChIP-seq and RNA-seq. JQ1 was administered for 4 h prior to RNA collection.
Morphologic differentiation is evidenced by accumulation of abundant cytoplasm, enlargement of nuclei and cytoplasm, and formation of cohesive spheres. […] It has been shown that an important function of ZNF532-NUT is to maintain expression of MYC. […] One such megadomain occupies a region proximal to MYC (FIG. 11A). […] Consistent with its role in MYC upregulation, knockdown of ZNF532-NUT leads to decreased MYC protein levels (FIG. 11B).

For the next assay, the system named is ZNF532 locus. Put plainly: Nascent RNA-seq of transcription at the ZNF532 locus in NMC cell lines. Conditions: NMC cell lines 797 and 1015, in the presence of JQ1. An excerpt: Transcription is seen in two of the NMC cell lines, 797 and 1015, and is shown to diminish in the presence of JQ1.

Take `Cc1sc2c(c1C)C(c1ccc(Cl)cc1)=N[C@@H](CC(=O)OC(C)(C)C)c1nnc(C)n1-2` [JQ1, (S)-tert-butyl 2-(4-(4-chlorophenyl)-2,3,9-trimethyl-6H-thieno[3,2-f][1,2,4]triazolo[4,3-a][1,4]diazepin-6-yl)acetate]: in the assay with 24335 cells, the “differentiation of 24335 cells (expression of involucrin, marker of terminal squamous differentiation)” value is given as “results in differentiation”. The “expression of the PVT1 RNA” value with PVT1 RNA is “decreased expression”. In the assay on ZNF532 locus, the “transcription at the ZNF532 locus” value was “diminish”.

Values taken from US20180346988A1, “ZNF532 FOR DIAGNOSIS AND TREATMENT OF CANCER” (THE BRIGHAM AND WOMEN'S HOSPITAL, INC., priority 2015, published 2018).
